Experimental data published in patent US20040034104A1, “2,2-Diphenylbutanamide derivatives and medicines containing the same” (priority 2000, published 2004).

Experiments:
[1] = tested on: opioid receptor (μ-opioid); assay: Opioid receptor agonist activity in guinea pig ileum longitudinal muscle specimens; details: agonist activity relative to DAMGO (=1.0); ileum longitudinal muscle specimens with Auerbach's plexus; method of Oka et al.
Protocol: Hartley male guinea pigs (body weight: about 500 g) wer employed. The ileum (15-30 cm) was removed from the ileocecum of each guinea pig, to thereby prepare longitudinal muscle specimens having Auerbach's plexus. Opioid receptor activity of the test drugs was measured through a method proposed by Oka et al. (Eur. J. Pharmacol., 77; 137-141, 1982). Agonist activity is represented by the efficacy relative to the activity of DAMGO ([D-Ala^2, N-MePhe^4, Gly^5-ol]-enkephalin), which is a selective μ-opioid agonist.

Compound | Relative potency [1] | melting point [°C]
CN(C)C(=O)C(CCN1CCN(c2ccccc2OCCO)CC1)(c1ccccc1)c1ccccc1 [Compound No. 43, 4-[4-[2-(2-hydroxyethoxy)phenyl]piperazin-1-yl]-N,N-dimethyl-2,2-diphenylbutanamide] | 20 | 
C[C@@H](NC(=O)[C@@H](N)Cc1ccc(O)cc1)C(=O)NCC(=O)N(C)[C@@H](Cc1ccccc1)C(=O)NCCO [DAMGO, [D-Ala^2, N-MePhe^4, Gly^5-ol]-enkephalin, reference compound] | 1.0 | 
CN(C)C(=O)C(CCN1CCC(c2ccccc2OC(C)(C)C(=O)O)CC1)(c1ccccc1)c1ccccc1 |  | 156 to 158
CN(C)C(=O)C(CCN1CCC(c2ccccc2OCC(=O)O)CC1)(c1ccccc1)c1ccccc1 |  | 202
CN(C)C(=O)C(CCN1CCN(c2ccccc2OCC(=O)O)CC1)(c1ccccc1)c1ccccc1 [compound 45] | 20 | 
CCOC(=O)COc1ccccc1C1=CCN(CCC(C(=O)N(C)C)(c2ccccc2)c2ccccc2)CC1 |  | 147
CN(C)C(=O)C(CCN1CC=C(c2ccccc2OCC(=O)O)CC1)(c1ccccc1)c1ccccc1 |  | 135
CN(C)C(=O)C(CCN1CCN(c2ccccc2O)CC1)(c1ccccc1)c1ccccc1 [Compound No. 36, 4-[4-(2-Hydroxyphenyl)piperazin-1-yl]-N,N-dimethyl-2,2-diphenylbutanamide] | 10 | 
CN(C)C(=O)C(CCN1CCC(c2ccccc2OCCO)CC1)(c1ccccc1)c1ccccc1 [Compound No. 69, 4-[4-[2-(2-hydroxyethoxy)phenyl]piperidin-1-yl]-N,N-dimethyl-2,2-diphenylbutanamide] | 10 | 
O=C(O)COc1ccccc1C1CCN(CCC(C(=O)N2CCCC2)(c2ccccc2)c2ccccc2)CC1 |  | 239
